# Laboratory results reported in patent US9115122B2, “Non-ATP dependent inhibitors of extracellular signal-regulated kinase (ERK)” (UNIVERSITY OF MARYLAND, BALTIMORE, priority 2012, dated 2015).
# Columns and labels:
# ERK2 L114A = ERK2 L114A (Rattus norvegicus (Rat), UniProt P63086, L114A); experiment: Fluorescence quenching (FQ) binding affinity; details: read-out: KD L114A (Site 2)
# ERK2 L235A = ERK2 L235A (Rattus norvegicus (Rat), UniProt P63086, L235A); experiment: Fluorescence quenching (FQ) binding affinity; details: read-out: KD L235A (Site 5)
# ERK2 Y191A = ERK2 Y191A (Rattus norvegicus (Rat), UniProt P63086, Y191A); experiment: Fluorescence quenching (FQ) binding affinity; details: read-out: KD Y191A (Site 2)
# A375 melanoma cells = experiment: Cell proliferation, fluorescent Cell Titer Blue Assay (Example 1); assay type: cell-based; details: Homo sapiens, A-375; 48 hours
# Procedure: (§1) FIG. 5. Dose dependent inhibition of cancer cell proliferation in vitro by SF-3-026 and analogs. A375 (closes circles), RPM17951 (closed squares), HeLa (open circles), or Jurkat (open squares) cells were treated for 48 hours with indicated concentration of (a) SF-3-026, (b) SF-2-027, (c) SF-2-029, or (d) SF-2-030 and cell proliferation was assessed by the fluorescent Cell Titer Blue Assay. The data were reproduced in 3 separate experiments.
# (§2) Cells were seeded at 25,000 cells/well in 96-well plate and cultured overnight. Cells were treated for 24 hours with various concentrations of compounds and cell viability or caspase 3/7 activity were measured according to manufacturer's instructions using the fluorescent Cell Titer Blue Assay (Promega) or luminescent Caspase 3/7 Glo Assay (Promega).
# (§3) It was next determined whether inhibition of AP-1 proteins by SF-3-026 and analogs affected the proliferation of cancer cells driven by mutations that constitutively activate the ERK1/2 pathway. For these experiments, A375 and RPMI7951 melanoma cells, which have a valine to glutamate mutation on residue 600 in BRaf that causes constitutive ERK1/2 activation, were chosen. Moreover, RPMI7951 cells are resistant to clinically used BRaf inhibitors due to overexpression of MAP3K8 (the gene encoding COT/Tp12) that re-activates ERK1/2 signaling. Both melanoma cells lines were treated with varying doses of SF-3-026 or analogs and cell viability was compared to HeLa cervical carcinoma and Jurkat T-cell leukemia cells, which are p53 defective but contain no known activating mutations in the ERK1/2 pathway.
# RPMI7951 melanoma cells = experiment: as above; assay type: cell-based; details: Homo sapiens, RPMI-7951; 48 hours
# Procedure: as §1, §2, §3
# [1] = system: Jurkat T-cell leukemia cells; experiment: as above; assay type: cell-based; details: Homo sapiens, 48 hours
# Procedure: as §1, §2, §3
# [2] = system: HeLa cervical carcinoma cells; experiment: as above; assay type: cell-based; details: Homo sapiens, 48 hours
# Procedure: as §1, §2, §3
# [3] = system: c-Fos, Fra1, and FosB expression; experiment: Immunoblot of EGF-induced c-Fos, Fra1 and FosB expression in HeLa cells; assay type: cell-based; details: EGF 25 ng/mL
# Procedure: FIG. 3. EGF-mediated induction of AP-1 proteins is inhibited by SF-3-026 and SF-3-030. (a) HeLa cells were treated for 10, 30, or 60 min. with EGF (25 ng/mL) in the presence of 50 μM SF-3-026 or 10 μM U0126. Protein lysates were immunoblotted for c-Fos, Fra1, FosB and FosB2. Phosphorylated ERK1/2 is not affected by SF-3-026 and α-tubulin expression is shown for a protein loading control. (b) Protein lysates from HeLa cells treated for 30 min. with EGF in the absence or presence of 10, 25, 50, or 100 μM of SF-3-026 or SF-3-030 were immunoblotted for c-Fos, Fra1, FosB, FosB2, as well as phosphorylated ERK1/2 and MEK1/2. Total ERK2 and α-tubulin expression are shown for protein loading controls. Data are representative of three independent experiments.
# Analysis of protein expression levels, activity, and cell proliferation were done as previously described. […] Proteins were separated by SDS-PAGE, analyzed by immunoblotting, and detected using enhanced chemiluminescence (ECL, GE Healthcare, United Kingdom).
# The reported half-life for c-Fos is ˜10 minutes and growth factor-mediated stabilization of c-Fos protein expression can be observed within 30-60 minutes, whereas stabilization of Fra1 protein is delayed due to AP-1 regulation of the Fra1 promoter. Thus, growth factor-mediated induction of c-Fos, Fra1, and FosB expression was evaluated following treatment with SF-3-026. […]
# ERK2 L235A, sequence (P63086 whole entry L235A): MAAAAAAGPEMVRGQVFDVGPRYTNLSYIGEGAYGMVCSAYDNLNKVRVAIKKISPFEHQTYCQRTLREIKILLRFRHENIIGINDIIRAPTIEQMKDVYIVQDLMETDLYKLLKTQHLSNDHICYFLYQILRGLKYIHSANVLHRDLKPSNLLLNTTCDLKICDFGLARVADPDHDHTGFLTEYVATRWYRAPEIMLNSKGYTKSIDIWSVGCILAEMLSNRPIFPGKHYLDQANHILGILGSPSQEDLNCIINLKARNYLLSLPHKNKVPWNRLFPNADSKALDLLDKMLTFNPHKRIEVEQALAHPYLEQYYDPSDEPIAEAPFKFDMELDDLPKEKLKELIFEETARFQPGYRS
# ERK2 L114A, sequence (P63086 whole entry L114A): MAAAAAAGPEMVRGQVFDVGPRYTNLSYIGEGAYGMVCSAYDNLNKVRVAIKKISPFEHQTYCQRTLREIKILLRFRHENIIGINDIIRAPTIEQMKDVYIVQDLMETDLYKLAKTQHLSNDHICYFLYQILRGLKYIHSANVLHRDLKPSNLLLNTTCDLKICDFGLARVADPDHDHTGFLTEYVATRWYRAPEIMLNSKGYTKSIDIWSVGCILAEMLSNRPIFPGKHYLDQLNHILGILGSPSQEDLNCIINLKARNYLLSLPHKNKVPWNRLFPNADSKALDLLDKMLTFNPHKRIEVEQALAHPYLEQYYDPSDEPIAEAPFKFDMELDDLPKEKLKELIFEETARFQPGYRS
# ERK2 Y191A, sequence (P63086 whole entry Y191A): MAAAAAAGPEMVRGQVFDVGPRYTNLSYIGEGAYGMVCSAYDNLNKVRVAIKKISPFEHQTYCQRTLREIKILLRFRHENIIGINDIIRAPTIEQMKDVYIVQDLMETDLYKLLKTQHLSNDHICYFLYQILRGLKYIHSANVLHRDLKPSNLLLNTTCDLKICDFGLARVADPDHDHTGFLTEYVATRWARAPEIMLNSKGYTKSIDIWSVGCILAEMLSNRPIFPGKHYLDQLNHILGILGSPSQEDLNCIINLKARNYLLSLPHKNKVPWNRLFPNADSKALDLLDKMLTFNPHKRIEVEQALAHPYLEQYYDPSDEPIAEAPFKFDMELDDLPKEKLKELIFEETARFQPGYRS
compound,measurement,setting,value
O=S1(=O)C=CC(OS(=O)(=O)c2ccccc2)C1 (centres unmarked) [SF-3-026],Kd,ERK2 L114A,0.027 ± 0.01 µM
same,Kd,ERK2 L235A,0.09 ± 0.02 µM
same,Kd,ERK2 Y191A,0.13 µM
same,GI50,A375 melanoma cells,7.8 µM
same,GI50,RPMI7951 melanoma cells,5.1 µM
same,GI50,[1],> 50 µM
same,GI50,[2],32 µM
same,"inhibition of EGF-induced c-Fos, Fra1, and FosB expression",[3],dramatic inhibition
